Experimental data: ChEMBL document CHEMBL1201862, “PubChem BioAssay data set” (2004)
Activity calls are given as the source filed them.

Tests used:
[1] = viability of HCT116 lacking mutant beta-catenin – cell-based, human colon tumor, dose response (AID 1045); format: functional;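 also: HCT116 colon tumor cells with beta catenin knocked out; cells exposed to compound for 60 hours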
[2] = viability of PTEN-deleted HCT116 cells – cell-based, HCT116 PTEN knockout, dose response (AID 1047); format: functional;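 also: HCT116 colon tumor cells with PTEN knocked out; cells exposed to compound for 60 hours before readout; potency for loss of cell viability measured by luminescence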
H9c2 = experiment: cells; format: functional, cell-based; settings: Rattus norvegicus, H9c2, Myocardium;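 also: confirmatory concentration-response retest of ultra-high-throughput screening hits for modulation of myocardial damage; cell death induced by hydrogen peroxide oxidative stress; compound pretreatment for 60 min then peroxide exposure for 2 h; potency is for protecting the cells against peroxide damage rather than for killing them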
[3] = target: T1, Rac GTPase-activating protein 1 (Homo sapiens, UniProt Q9H0H5); experiment: blockers of MgcRacGAP-driven Rac1 GTP hydrolysis – biochemical, ADP Hunter fluorescence, primary and confirmatory, confirmation (AID 624330); format: functional
T1 sequence (Q9H0H5 whole entry): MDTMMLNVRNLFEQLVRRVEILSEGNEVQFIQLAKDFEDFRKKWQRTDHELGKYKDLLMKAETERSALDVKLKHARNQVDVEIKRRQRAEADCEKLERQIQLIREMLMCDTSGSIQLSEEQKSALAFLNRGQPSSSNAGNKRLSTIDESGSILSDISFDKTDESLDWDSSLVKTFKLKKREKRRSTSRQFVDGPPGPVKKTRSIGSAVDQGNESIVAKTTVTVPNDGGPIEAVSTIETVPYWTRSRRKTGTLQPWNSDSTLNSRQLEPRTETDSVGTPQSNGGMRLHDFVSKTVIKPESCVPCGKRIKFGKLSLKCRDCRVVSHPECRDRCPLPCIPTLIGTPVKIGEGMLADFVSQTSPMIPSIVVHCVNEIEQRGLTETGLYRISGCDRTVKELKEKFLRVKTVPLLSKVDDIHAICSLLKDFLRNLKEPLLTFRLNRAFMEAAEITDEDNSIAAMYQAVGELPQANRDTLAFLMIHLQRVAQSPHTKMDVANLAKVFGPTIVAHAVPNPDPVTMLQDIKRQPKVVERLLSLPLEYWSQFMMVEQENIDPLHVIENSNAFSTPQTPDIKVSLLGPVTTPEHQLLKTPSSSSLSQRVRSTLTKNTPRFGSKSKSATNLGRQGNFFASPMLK

[4] = target: FAD-linked sulfhydryl oxidase ALR (Homo sapiens, UniProt P55789); experiment: ALR-catalysed DTT oxidation blockers – biochemical, H2O2 detection, luminescence, cherry-pick, dose response (AID 493248)
[5] = target: T2, Polyadenylate-binding protein 1 (Homo sapiens, UniProt P11940); experiment: MLLE domain peptide-binding blockers, IC50 – biochemical, fluorescence polarization, FITC-PAM2 peptide, dose response (AID 602259); format: functional; settings: read-out: IC50_Mean
[6] = target: T2, Polyadenylate-binding protein 1; experiment: MLLE binding blockers, Cy5 peptide tracer – biochemical, fluorescence polarization, Cy5-PAM2 peptide, secondary, miRNA deadenylation inhibitor project, dose response (AID 602260); format: functional; settings: read-out: IC50_Mean
[7] = target: T3, Heat shock factor protein 1 (Mus musculus, UniProt P38532); experiment: enhancement of HSF1-driven luciferase signal – cell-based, NIH3T3, luminescence, dose retest, confirmation (AID 435004); format: functional;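 also: stress induced by proteasome inhibitor MG132 added 30 min after compound; luciferase reporter driven by HSF1 response element in NIH3T3 cells; actives raise luminescence as potentiators of the MG132 stress response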
T3 sequence (P38532 whole entry): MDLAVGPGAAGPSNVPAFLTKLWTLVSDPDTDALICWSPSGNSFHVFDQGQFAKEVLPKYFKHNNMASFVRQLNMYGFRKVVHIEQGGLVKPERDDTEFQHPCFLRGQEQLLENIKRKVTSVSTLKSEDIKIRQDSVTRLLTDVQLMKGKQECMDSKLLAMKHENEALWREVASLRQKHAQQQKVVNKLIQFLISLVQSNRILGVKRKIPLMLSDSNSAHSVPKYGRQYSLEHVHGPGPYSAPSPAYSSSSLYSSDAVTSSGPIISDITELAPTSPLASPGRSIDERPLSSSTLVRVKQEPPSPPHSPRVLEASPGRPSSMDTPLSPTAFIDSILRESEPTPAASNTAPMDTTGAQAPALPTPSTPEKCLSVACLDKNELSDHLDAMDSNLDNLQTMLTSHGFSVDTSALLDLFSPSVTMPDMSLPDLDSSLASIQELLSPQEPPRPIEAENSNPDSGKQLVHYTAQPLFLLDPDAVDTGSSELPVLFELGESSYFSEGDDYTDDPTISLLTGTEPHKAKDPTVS

Vero = experiment: cells; format: functional; settings: Chlorocebus sabaeus
[8] = viability of uninfected HEp-2 cells – cell-based, HTS, cytotoxicity control for RSV inhibitor project, dose response (AID 2410); format: functional; settings: human respiratory syncytial virus
[9] = target: T4, Ubiquitin-conjugating enzyme E2 N (Homo sapiens, UniProt P61088); format: functional;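 also: Dose-response confirmation in a TR-FRET assay detecting UBC13-driven polyubiquitin chain formation, inhibition measured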
T4 sequence (P61088 whole entry): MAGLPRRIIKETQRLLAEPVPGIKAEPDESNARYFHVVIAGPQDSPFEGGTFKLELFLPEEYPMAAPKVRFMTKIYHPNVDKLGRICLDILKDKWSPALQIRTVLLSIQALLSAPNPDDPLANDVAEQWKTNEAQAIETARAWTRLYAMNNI

Large T antigen = Large T antigen (Simian virus 40, UniProt P03070); format: functional, Betapolyomavirus macacae;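 also: Confirmatory-stage PubChem screen for compounds that inhibit SV40 T antigen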
Cytochrome P450 2C9 = Cytochrome P450 2C9 (Homo sapiens, UniProt P11712)
Streptococcus = experiment: GAS UMAA2166 growth inhibition – luminescence, BacTiterGlo, counter-screen for streptokinase expression inhibitor project, dose response (AID 1915); format: functional, organism-based;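 also: potency for reduction of bacterial viability or growth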
[10] = tested on: Streptococcus sp. 'group A'; experiment: Streptococcus pyogenes SK(-)GAS viability under kanamycin – luminescence, BacTiterGlo, confirmation, counter-screen for streptokinase expression inhibitor project, dose response (AID 1900); format: functional, organism-based
cells = format: functional

Large T antigen, sequence (P03070 whole entry): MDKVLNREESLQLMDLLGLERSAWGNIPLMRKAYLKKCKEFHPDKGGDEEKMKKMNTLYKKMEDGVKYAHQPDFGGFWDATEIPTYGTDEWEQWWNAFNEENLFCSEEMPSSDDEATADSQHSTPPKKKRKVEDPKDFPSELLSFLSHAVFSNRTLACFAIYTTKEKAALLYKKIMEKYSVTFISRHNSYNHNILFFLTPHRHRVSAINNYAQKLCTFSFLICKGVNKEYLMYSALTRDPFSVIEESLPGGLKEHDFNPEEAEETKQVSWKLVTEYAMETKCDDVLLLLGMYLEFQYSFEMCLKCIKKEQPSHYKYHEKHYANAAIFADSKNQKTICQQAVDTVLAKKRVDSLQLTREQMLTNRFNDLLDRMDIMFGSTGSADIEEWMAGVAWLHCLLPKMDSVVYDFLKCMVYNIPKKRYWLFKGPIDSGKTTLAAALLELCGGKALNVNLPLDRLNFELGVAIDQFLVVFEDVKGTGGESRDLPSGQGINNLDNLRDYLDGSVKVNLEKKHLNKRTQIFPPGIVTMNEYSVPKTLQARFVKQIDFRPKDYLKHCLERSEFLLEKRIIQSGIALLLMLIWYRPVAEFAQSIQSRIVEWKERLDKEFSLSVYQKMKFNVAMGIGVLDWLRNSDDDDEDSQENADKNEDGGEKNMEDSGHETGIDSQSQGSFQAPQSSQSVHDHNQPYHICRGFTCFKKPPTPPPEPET
FAD-linked sulfhydryl oxidase ALR, sequence (P55789 whole entry, the tested form may be a part): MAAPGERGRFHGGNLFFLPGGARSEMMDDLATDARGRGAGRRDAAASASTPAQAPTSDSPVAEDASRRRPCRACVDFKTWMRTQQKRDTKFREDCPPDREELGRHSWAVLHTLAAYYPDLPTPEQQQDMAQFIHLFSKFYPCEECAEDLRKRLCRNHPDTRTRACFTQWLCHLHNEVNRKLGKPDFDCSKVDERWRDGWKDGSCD
T2 sequence (P11940 whole entry, the tested form may be a part): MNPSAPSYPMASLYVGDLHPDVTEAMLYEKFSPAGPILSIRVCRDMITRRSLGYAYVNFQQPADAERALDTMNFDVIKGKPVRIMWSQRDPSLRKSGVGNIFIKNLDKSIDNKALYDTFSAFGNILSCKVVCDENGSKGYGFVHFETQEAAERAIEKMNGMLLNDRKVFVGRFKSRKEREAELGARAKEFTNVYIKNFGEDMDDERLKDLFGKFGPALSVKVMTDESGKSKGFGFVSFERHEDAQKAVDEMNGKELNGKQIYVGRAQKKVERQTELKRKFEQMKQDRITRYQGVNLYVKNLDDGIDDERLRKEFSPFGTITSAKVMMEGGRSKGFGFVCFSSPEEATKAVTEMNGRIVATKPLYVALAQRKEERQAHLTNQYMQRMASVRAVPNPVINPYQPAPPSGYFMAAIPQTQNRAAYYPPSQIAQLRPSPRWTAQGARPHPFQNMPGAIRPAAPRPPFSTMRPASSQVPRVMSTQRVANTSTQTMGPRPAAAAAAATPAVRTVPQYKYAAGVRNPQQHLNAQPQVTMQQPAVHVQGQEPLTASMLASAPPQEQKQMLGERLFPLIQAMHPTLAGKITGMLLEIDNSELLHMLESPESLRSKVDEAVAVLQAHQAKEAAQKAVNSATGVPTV
Cytochrome P450 2C9, sequence (P11712 whole entry): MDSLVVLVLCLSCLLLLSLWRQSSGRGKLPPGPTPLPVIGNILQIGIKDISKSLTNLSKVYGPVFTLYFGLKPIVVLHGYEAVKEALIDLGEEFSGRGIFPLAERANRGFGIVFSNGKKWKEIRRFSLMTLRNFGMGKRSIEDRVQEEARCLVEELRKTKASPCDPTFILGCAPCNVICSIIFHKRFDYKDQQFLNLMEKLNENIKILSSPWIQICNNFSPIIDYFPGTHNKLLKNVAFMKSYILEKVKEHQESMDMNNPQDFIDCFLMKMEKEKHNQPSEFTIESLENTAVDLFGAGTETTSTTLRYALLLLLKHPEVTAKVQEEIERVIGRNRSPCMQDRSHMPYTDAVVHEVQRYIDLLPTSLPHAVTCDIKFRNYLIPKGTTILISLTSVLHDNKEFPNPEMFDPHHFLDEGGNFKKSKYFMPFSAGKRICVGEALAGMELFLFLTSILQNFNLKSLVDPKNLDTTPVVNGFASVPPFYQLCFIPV

O=C1c2ccccc2C(=O)C12OC2c1ccc(Cl)cc1Cl (stereo unspecified)
EC50 [1]: 20.3 µM (active) | EC50 [2]: 29.6 µM (active)

O=C(COC(=O)Cc1nnc(O)c2ccccc12)Nc1ncc(Cl)cc1Cl
IC50 (H9c2): 15.4 µM (active)

CCCn1c(SC(C(=O)Nc2cccc(OC)c2)c2ccccc2)nc2ccccc2c1=O (stereo unspecified)
IC50 (H9c2): > 79 µM (inactive)

CCN(CC)S(=O)(=O)c1ccc(C)c(NC(=O)CN2CCN(C)CC2)c1
IC50 [3]: 118 µM (active)

CCOC(=O)C1CCN(Cc2ccc(-c3ccccc3)cc2)CC1
IC50 [3]: 151 µM (active)

O=C(NCc1nnc(O)c2ccccc12)C1CC(=O)N(c2ccccc2)C1 (stereo unspecified)
IC50 (H9c2): > 79 µM (inactive)

CCN(CC)C(=O)CC(c1ccc(N(C)C)cc1)c1c(OC)cc(OC)c2ccc(=O)oc12 (stereo unspecified)
AC50 [4]: 3.89 µM (active)

CCN1CCN(CCOc2ccc(Br)cc2C)CC1
IC50 [3]: 73.2 µM (active)

CC(=O)Nc1ccc(SCCN2CC[C@@H](C(C)(C)C)CCC2=O)cc1
IC50 [5]: > 66 µM (inactive) | AC50 [4]: 0.25 µM (active) | IC50 [6]: > 66 µM (inactive)

COC(=O)c1ccc(N)c(NC=C2C(=O)CC(C)(C)CC2=O)c1
IC50 (H9c2): 6.51 µM (active)

Cc1ccc(S(=O)(=O)N(C)C)cc1NC(=O)CSc1ncc(C(F)(F)F)cc1Cl
EC50 [1]: 647 µM (active) | EC50 [2]: 88.7 µM (active)

Cc1cc(C(=O)Nc2nnc(-c3ccccc3)s2)no1
AC50 [4]: 18.9 µM (active)

O=C(/C=C/NNC(=O)c1ccccc1)c1ccc(Br)cc1
EC50 [7]: 39.1 µM (active) | IC50 (H9c2): 12.4 µM (active)

Cc1ccccc1C1c2[nH]c3ccccc3c2C[C@H]2C(=O)N(c3ccccc3C(=O)NCCCN3CCOCC3)C(=O)N12 (stereo partly specified)
IC50 (H9c2): 15.3 µM (active)

CCOC(=O)N1CCN(S(=O)(=O)c2ccc(C(=O)Nc3nc4c(s3)CC(C)CC4)cc2)CC1 (stereo unspecified)
EC50 [1]: 1.7 µM (active) | EC50 [2]: 1.25 µM (active)

O=C1CCCC2=C1C(c1ccc(Cl)cc1)n1c(s/c(=C\c3ccc4ccncc4c3)c1=O)=N2 (stereo unspecified)
CC50 (Vero): > 25 µM (active) | CC50 [8]: 31.8 µM (active) | EC50 [7]: 146 µM (active)

CCCC(=O)Nc1nc2ccc(NC(=O)c3ccc(Br)o3)cc2s1
IC50 (H9c2): > 79 µM (inactive)

COCCN(Cc1nc(O)c2ccccc2n1)C(=O)COc1ccccc1-c1ccccc1
CC50 (Vero): > 25 µM (active)

CCOC(=O)C1CCN(c2cc3c(cc2NC(=O)c2ccc(OC)c(OC)c2)n(C)c(=O)n3C)CC1
IC50 (H9c2): 26.8 µM (active)

CCCn1c2ccccc2c2nc3ccccc3nc21
CC50 [8]: > 50 µM (active) | IC50 [9]: > 20 µM (inactive)

Nc1cc(CN2C(=O)c3ccccc3C2=O)cc(Cl)c1O
IC50 (Large T antigen): 8.42 µM (active)

CNC(C)Cc1ccccc1Sc1ccc(O)cc1 (stereo unspecified)
AC50 (Cytochrome P450 2C9): 28.2 µM (inconclusive) | IC50 (Large T antigen): 94.4 µM (active) | AC50 [4]: 3.15 µM (active)

COc1ccc(NCCc2ccccn2)cc1
IC50 (Large T antigen): 19.3 µM (active)

CC(C)C(=O)Nc1ccc(O)c(-c2csc(N)n2)c1
IC50 (Large T antigen): 46.3 µM (active)

COc1cccc(COC(=O)c2sc3nc4n(c(=O)c3c2C)CCC4)c1OC
EC50 (Streptococcus): 8.48 µM (active) | EC50 [10]: 1.6 µM (active) | IC50 (cells): 4.36 µM (active)

O=C(Nc1ccncc1)C1CCN(S(=O)(=O)c2cccc(C(F)(F)F)c2)CC1
IC50 [9]: > 20 µM (inactive)

CCC1(C)N=C(N)Nc2nc3cc(C)c(C)cc3n21 (stereo unspecified)
EC50 [7]: > 260 µM (inactive) | AC50 [4]: 4.1 µM (active)
